Measurements reported in patent publication US9694084B2, “Methods to induce targeted protein degradation through bifunctional molecules” (Dana-Farber Cancer Institute, Inc., priority 2014, dated 2017).

What was measured:
[1] = tested on: MV4-11 cell proliferation; test: MV4-11 cell proliferation (ATP content); format: cell-based; conditions: Homo sapiens, MV4-11, 24 h, read-out: IC50, MV4-11 cell proliferation (ATP content)
MV4-11 cells = test: Apoptosis in MV4-11 cells (Caspase-GLO, PARP and Caspase-3 cleavage, Annexin V); format: cell-based, human; conditions: MV4-11, 4 or 8 hours then drug washout, assessed at 24 hours
[2] = target: recombinant, human CRBN-DDB1 and BRD4 (Homo sapiens, UniProt O60885+Q96SW2); test: CRBN-DDB1/BRD4 dimerization (proximity) AlphaScreen assay; format: biochemical; conditions: co-incubation with 111 nM dBET1, competitor 1 μM, stereo-specific
PIM1 = test: Expression proteomics in MV4-11 cells; conditions: 250 nM, 2 hours

Structure (SMILES)	IC50 [1] [µM]	apoptotic response after pulsed treatment (MV4-11 cells)	competition of dBET1 induced proximity [2]	PIM1 protein abundance (PIM1)
Cc1sc2c(c1C)C(c1ccc(Cl)cc1)=N[C@@H](CC(=O)OC(C)(C)C)c1nnc(C)n1-2 [JQ1]	1.1	did not yield a pronounced apoptotic response	Inhibition of chemical adaptor function was accomplished	downregulated
O=C1CCC(N2C(=O)c3ccccc3C2=O)C(=O)N1 (centres unmarked) [thalidomide]			Inhibition of chemical adaptor function was accomplished	
